Data taken from patent publication US20200140483A1, “USE OF Y PEPTIDE IN PREPARATION OF DRUG OR HEALTHCARE PRODUCT FOR LOWERING BLOOD PRESSURE” (priority 2017, published 2020).
Residues, ends and D or L forms follow the SMILES beside them.

Test system: SHR rats
Type: in vivo, rat
Description: Each group was intragastrically administrated a solution of a corresponding tested substance or ultrapure water, in a volume of 10 mL/kg body weight, once per day for 30 consecutive days. The blood pressure and heart rates of the animals were measured during the administration of the tested substance. The blood pressure was measured with an LE5002 noninvasive blood pressure meter.

N[C@@H](Cc1ccc(O)cc1)C(=O)N[C@@H](Cc1ccc(O)cc1)C(=O)O [YY-peptide] (H-Tyr-Tyr-OH; N-terminus and C-terminus assumed)
blood pressure (SHR rats, 10 mg/kg intragastric once per day, 7th day, model control 161±6): 157±7
effect in lowering blood pressure (SHR rats, 10 mg/kg, 7th day): significant effect in lowering blood pressure
effect on body weight (rat, in vivo, 10 mg/kg): no obvious effect
effect on heart rates (rat, in vivo, 10 mg/kg): no obvious effect
